Experimental data published in ChEMBL document CHEMBL5442219.

What was measured:
Settings in all cases: Compound concentration 10 µM
[1] = target: T1, Alpha-2B adrenergic receptor (Homo sapiens) (UniProt P18089)
T1 sequence (whole entry): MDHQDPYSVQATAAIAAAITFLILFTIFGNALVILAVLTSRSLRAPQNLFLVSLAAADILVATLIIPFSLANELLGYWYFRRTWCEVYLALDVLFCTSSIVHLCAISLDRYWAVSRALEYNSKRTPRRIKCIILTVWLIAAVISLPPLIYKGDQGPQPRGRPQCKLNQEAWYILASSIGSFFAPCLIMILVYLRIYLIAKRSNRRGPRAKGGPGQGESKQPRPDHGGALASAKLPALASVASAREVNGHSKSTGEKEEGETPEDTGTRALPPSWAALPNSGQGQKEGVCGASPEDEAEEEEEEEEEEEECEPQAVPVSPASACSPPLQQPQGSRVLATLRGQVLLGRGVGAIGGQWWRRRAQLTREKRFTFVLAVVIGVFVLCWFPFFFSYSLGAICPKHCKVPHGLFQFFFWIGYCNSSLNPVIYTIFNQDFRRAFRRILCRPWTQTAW
Description: PDSP Primary Binding target: ADRA2B - Compounds are tested at 10 uM concentration, plate are incubated at room temperature in the dark for 90 minutes. Reaction are stopped by vacuum filtration onto 0.3% polyethyleneimine soaked filter mats using Filtermate harvester. Scintilation cocktail is then melted onto microwave-dried filters on a hot plate and the radio activity is counted in Microbia counter.

[2] = target: T2, 5-hydroxytryptamine receptor 2C (Homo sapiens) (UniProt P28335)
T2 sequence (whole entry): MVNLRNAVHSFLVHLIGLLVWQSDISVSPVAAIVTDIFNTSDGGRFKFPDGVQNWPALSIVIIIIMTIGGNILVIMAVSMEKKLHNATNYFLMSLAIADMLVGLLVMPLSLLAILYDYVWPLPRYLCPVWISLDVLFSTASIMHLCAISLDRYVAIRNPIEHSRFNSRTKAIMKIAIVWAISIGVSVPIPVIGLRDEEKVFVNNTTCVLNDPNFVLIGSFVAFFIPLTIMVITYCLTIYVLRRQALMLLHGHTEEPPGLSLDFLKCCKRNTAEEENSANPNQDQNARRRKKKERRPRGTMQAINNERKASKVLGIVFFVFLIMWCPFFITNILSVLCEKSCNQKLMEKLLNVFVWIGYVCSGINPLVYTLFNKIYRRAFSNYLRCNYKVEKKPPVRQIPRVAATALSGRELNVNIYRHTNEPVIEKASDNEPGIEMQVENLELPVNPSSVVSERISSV
Description: PDSP Primary Binding target: HTR2C - Compounds are tested at 10 uM concentration, plate are incubated at room temperature in the dark for 90 minutes. Reaction are stopped by vacuum filtration onto 0.3% polyethyleneimine soaked filter mats using Filtermate harvester. Scintilation cocktail is then melted onto microwave-dried filters on a hot plate and the radio activity is counted in Microbia counter.

[3] = target: T3, D(4) dopamine receptor (Homo sapiens) (UniProt P21917)
T3 sequence (whole entry): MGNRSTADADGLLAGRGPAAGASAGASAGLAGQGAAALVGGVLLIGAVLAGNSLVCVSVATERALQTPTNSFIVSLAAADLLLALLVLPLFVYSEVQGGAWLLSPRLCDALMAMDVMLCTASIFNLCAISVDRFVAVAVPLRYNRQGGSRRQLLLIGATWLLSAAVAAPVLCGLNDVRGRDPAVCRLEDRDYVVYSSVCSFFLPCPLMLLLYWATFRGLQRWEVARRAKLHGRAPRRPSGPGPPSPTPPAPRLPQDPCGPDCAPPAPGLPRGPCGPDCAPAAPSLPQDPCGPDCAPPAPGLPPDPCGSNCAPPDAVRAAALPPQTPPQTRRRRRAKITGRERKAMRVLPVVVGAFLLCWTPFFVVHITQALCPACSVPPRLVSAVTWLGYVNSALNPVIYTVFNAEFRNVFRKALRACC
Description: PDSP Primary Binding target: DRD4 - Compounds are tested at 10 uM concentration, plate are incubated at room temperature in the dark for 90 minutes. Reaction are stopped by vacuum filtration onto 0.3% polyethyleneimine soaked filter mats using Filtermate harvester. Scintilation cocktail is then melted onto microwave-dried filters on a hot plate and the radio activity is counted in Microbia counter.

[4] = target: Histamine H1 receptor (Homo sapiens) (UniProt P35367)
Histamine H1 receptor (Homo sapiens), sequence (P35367 whole entry): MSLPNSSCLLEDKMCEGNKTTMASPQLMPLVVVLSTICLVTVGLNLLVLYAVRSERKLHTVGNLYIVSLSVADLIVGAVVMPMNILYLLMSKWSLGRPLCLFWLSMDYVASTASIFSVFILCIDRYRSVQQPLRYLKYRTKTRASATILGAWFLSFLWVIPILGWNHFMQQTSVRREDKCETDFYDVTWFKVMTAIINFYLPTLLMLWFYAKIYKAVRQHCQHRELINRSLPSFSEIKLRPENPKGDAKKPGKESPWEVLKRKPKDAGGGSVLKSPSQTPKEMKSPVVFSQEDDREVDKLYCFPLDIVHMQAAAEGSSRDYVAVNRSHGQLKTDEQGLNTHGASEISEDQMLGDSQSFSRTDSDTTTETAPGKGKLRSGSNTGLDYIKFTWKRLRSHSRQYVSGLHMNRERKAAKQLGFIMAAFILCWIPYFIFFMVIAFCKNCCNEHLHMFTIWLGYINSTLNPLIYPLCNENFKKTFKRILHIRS
Description: PDSP Primary Binding target: HRH1 - Compounds are tested at 10 uM concentration, plate are incubated at room temperature in the dark for 90 minutes. Reaction are stopped by vacuum filtration onto 0.3% polyethyleneimine soaked filter mats using Filtermate harvester. Scintilation cocktail is then melted onto microwave-dried filters on a hot plate and the radio activity is counted in Microbia counter.

[5] = target: T4, Alpha-1A adrenergic receptor (Homo sapiens) (UniProt P35348)
T4 sequence (whole entry): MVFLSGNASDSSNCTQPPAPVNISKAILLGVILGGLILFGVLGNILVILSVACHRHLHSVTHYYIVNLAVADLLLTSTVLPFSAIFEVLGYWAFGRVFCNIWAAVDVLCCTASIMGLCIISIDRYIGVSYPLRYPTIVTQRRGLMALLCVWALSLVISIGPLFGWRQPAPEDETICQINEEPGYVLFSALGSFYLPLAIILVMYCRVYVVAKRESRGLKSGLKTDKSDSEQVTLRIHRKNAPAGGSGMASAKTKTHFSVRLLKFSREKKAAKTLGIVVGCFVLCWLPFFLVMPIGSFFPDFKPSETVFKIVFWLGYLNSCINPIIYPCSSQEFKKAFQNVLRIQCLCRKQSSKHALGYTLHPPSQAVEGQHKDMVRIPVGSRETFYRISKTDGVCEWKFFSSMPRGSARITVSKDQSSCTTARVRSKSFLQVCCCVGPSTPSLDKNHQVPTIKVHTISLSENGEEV
Description: PDSP Primary Binding target: ADRA1A - Compounds are tested at 10 uM concentration, plate are incubated at room temperature in the dark for 90 minutes. Reaction are stopped by vacuum filtration onto 0.3% polyethyleneimine soaked filter mats using Filtermate harvester. Scintilation cocktail is then melted onto microwave-dried filters on a hot plate and the radio activity is counted in Microbia counter.

[6] = target: T5, Muscarinic acetylcholine receptor M4 (Homo sapiens) (UniProt P08173)
T5 sequence (whole entry): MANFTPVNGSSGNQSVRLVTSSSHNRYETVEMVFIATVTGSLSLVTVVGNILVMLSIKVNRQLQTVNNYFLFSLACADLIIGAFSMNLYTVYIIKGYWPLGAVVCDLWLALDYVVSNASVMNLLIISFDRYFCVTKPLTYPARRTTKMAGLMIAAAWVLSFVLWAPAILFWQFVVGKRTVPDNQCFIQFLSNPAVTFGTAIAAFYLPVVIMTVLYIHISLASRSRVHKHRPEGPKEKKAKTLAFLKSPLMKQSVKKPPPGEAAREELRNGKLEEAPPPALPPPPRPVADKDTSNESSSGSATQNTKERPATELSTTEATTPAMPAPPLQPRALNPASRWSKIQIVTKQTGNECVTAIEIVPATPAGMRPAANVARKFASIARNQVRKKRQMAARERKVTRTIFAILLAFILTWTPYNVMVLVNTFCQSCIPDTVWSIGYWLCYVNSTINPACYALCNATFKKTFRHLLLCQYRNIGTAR
Description: PDSP Primary Binding target: CHRM4 - Compounds are tested at 10 uM concentration, plate are incubated at room temperature in the dark for 90 minutes. Reaction are stopped by vacuum filtration onto 0.3% polyethyleneimine soaked filter mats using Filtermate harvester. Scintilation cocktail is then melted onto microwave-dried filters on a hot plate and the radio activity is counted in Microbia counter.

[7] = target: Mu-type opioid receptor (Homo sapiens) (UniProt P35372)
Mu-type opioid receptor (Homo sapiens), sequence (P35372 whole entry): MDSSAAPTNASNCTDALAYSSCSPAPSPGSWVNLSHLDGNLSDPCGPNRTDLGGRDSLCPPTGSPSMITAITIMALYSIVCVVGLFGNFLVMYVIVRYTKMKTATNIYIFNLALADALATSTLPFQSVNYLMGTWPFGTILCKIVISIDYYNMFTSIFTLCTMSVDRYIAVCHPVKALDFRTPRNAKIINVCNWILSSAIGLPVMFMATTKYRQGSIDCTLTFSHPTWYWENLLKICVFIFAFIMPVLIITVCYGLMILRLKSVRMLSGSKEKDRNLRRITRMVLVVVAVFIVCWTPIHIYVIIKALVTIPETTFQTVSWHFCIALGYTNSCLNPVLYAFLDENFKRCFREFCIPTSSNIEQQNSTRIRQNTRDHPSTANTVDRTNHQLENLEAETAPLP
Description: PDSP Primary Binding target: OPRM1 - Compounds are tested at 10 uM concentration, plate are incubated at room temperature in the dark for 90 minutes. Reaction are stopped by vacuum filtration onto 0.3% polyethyleneimine soaked filter mats using Filtermate harvester. Scintilation cocktail is then melted onto microwave-dried filters on a hot plate and the radio activity is counted in Microbia counter.

[8] = target: T6, Muscarinic acetylcholine receptor M1 (Homo sapiens) (UniProt P11229)
T6 sequence (whole entry): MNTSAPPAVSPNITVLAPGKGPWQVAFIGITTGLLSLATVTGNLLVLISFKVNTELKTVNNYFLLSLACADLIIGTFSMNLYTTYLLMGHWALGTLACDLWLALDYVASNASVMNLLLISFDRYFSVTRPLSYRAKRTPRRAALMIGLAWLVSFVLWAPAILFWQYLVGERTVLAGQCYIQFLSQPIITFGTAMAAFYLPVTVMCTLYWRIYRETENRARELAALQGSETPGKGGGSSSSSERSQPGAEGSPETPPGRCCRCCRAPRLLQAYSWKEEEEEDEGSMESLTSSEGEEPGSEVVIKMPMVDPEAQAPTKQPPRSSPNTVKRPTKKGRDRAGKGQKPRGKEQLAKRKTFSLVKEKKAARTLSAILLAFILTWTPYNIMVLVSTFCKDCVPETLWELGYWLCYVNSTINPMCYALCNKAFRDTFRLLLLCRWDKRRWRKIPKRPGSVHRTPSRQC
Description: PDSP Primary Binding target: CHRM1 - Compounds are tested at 10 uM concentration, plate are incubated at room temperature in the dark for 90 minutes. Reaction are stopped by vacuum filtration onto 0.3% polyethyleneimine soaked filter mats using Filtermate harvester. Scintilation cocktail is then melted onto microwave-dried filters on a hot plate and the radio activity is counted in Microbia counter.

[9] = target: Kappa-type opioid receptor (Homo sapiens) (UniProt P41145)
Kappa-type opioid receptor (Homo sapiens), sequence (P41145 whole entry): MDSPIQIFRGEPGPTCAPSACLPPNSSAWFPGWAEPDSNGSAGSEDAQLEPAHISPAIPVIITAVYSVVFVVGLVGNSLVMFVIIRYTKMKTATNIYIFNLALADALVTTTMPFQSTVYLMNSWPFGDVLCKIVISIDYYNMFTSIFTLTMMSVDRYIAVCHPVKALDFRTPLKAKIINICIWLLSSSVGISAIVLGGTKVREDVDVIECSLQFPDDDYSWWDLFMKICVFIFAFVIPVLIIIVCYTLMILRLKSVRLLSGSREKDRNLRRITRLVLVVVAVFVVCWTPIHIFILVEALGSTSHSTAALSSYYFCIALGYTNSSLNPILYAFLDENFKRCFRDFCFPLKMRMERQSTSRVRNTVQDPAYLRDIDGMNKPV
Description: PDSP Primary Binding target: OPRK1 - Compounds are tested at 10 uM concentration, plate are incubated at room temperature in the dark for 90 minutes. Reaction are stopped by vacuum filtration onto 0.3% polyethyleneimine soaked filter mats using Filtermate harvester. Scintilation cocktail is then melted onto microwave-dried filters on a hot plate and the radio activity is counted in Microbia counter.

Structure (SMILES)	inhibition [1] [%]	inhibition [2] [%]	inhibition [3] [%]	inhibition [4] [%]	inhibition [5] [%]	inhibition [6] [%]	inhibition [7] [%]	inhibition [8] [%]	inhibition [9] [%]
Cc1cc(C)cc(-c2cnc3cc(Cl)c(-c4cccc(O)c4)cc3c2OCCCN)c1	25.7	79.8	32.1	98.8	28.4	8.82	75.9	24.3	60.7
CCC(=O)NCC[C@@H]1CCc2ccc3c(c21)CCO3	22	-6.58	-3.2	-1.68	-9.5	-2.55	-7.21	-3.08	14.2
Cc1cn2cc(CC(=O)N3CCC4(CC3)CN(Cc3ccc(-n5nccn5)cc3Cl)C4)nc2s1	11	-3.75	50.6	30.4	-6.22	87.5	21.4	51.1	35.7
Cc1cc([C@@H](C)Nc2cccc(-c3cc(C)c(C(=O)N[C@@H](C)C(=O)O)c(C)c3)c2)ccc1Cl	24.6	-0.82	31.4	2.32	11.3	7.41	16.5	21.2	0.51
CCC[C@H](Oc1cc(C)c(-n2cc(C(F)(F)F)cn2)c(C)c1)c1ccc(C(=O)NCCC(=O)O)cc1	-4.35	-0.8	-1.34	7.56	8.94	3.44	11	28	40.7
CN1CCN(c2ccc(Nc3c4ccccc4nc4ccccc34)cc2)CC1	66	16.7	13.3	54.4	50.9	24.6	12.4	51.2	38.7
COc1cccc(-c2c(C)n(Cc3c(F)cccc3C(F)(F)F)c(=O)n(C[C@H](NCCCC(=O)O)c3ccccc3)c2=O)c1F	-2.07	1.76	25.8	9.07	7.84	4.32	11.9	26.2	52.1
Cc1cc(NC(=O)NCCN2CCC(O)(Cc3ccccc3)CC2)c2ccccc2n1	29.6	92.3	21.1	5.97	23.9	17.1	43.3	13.7	31.9
NC(=O)[C@@H]1CCCN1C(=O)[C@H](Cc1c[nH]cn1)NC(=O)[C@@H]1CCC(=O)N1	14	-0.43	18.4	9.67	-7.07	-2.83	45.1	-3.59	6.58
COc1ccc2cc(S(=O)(=O)N[C@H](CC(=O)N[C@H](Cc3ccc(CN4[C@H](C)CCC[C@@H]4C)cc3)C(=O)N(C)C(C)C)c3ccc4c(c3)OCO4)ccc2c1	33.5	19.7	33.2	33.1	3.26	46.7	40	44.5	96.7
Cc1nc(C#Cc2ccnc(Cl)c2)c(C)n1-c1ccc(OC(F)(F)F)cc1	67.9	1.86	-0.11	-4.73	14.3	15.4	13.4	26.6	5.17
CNc1nc(NCc2ccc(NS(C)(=O)=O)cc2Cl)cc(-c2ccccn2)n1	24.4	55.4	2.1	12	8	9.44	14.5	9.22	73.2
CN(C)C(=O)N[C@H]1CC[C@H](CCN2CCN(c3cccc(Cl)c3Cl)CC2)CC1	90.6	97.3	103	98.7	89.1	64	4.29	11.8	5.62
Cc1c(P(=S)(c2ccccc2)c2ccccc2)n2ccccc2[n+]1C/C=C/c1ccccc1	45.7	25.7	25.8	67.1	28.7	68.4	87.3	88.2	101
CN1CCC(C(=O)c2cccc(NC(=O)c3c(F)cc(F)cc3F)n2)CC1	20.8	6.11	14	16.4	17.6	27	10.5	43.1	69.2
COc1ccc(NC(=O)c2ccc(-c3ccc(-c4noc(C)n4)cc3C)cc2)cc1OCCN(C)C	77.3	98.3	45.4	22.1	17.3	7.57	5.21	50.7	44
